Measurements published in patent US20230149409A1, “TREATMENT OF HUMAN PAPILLOMAVIRUS-ASSOCIATED CANCERS BY PD-L1 INHIBITORS” (priority 2021, published 2023).

Legend:
[1] = system: PD-L1 (PD-L1 aAPC/CHO-K1 cells, Jurkat-PD-1-NFAT effector cells); assay: Nuclear Factor of Activated T-cells (NFAT) assay; format: cell-based; conditions: Cricetulus griseus; PD-L1 aAPC/CHO-K1 + Jurkat-PD-1-NFAT cells, 24 hours
Description: Nuclear Factor of Activated T-cells (NFAT) Assay
PD-L1 aAPC/CHO-K1cells (Promega) were maintained in F-12 medium with addition of 10% FBS, 200 µg/mL Hygromycin B, 250 µg/mL Geneticin (G418). […] The culture media of PD-L1 aAPC/CHO-K1 cells were first replaced with assay medium (RPMI1640 medium with 1% FBS). The PD-L1 aAPC/CHO-K1cells were then added in a white 384-well white clear bottom assay plate (CELLCOAT® Tissue Culture Plates, Greiner Bio-One) at 8000 per well in 10 uL assay medium. […] 5 uL compounds in the assay medium were transferred to the cells with 0.4% DMSO in the final assay at 2 µM. After removing the culture media, 10,000 Jurkat-PD-1-NFAT effector cells in 5 µL assay medium was dispensed into each well. The assay plate was incubated at 37° C., 5% CO2 for 24 hours. […] After 8 minutes incubation at room temperature, luminescence was read at with Pherastar microplate reader (BMG Labtech). The fold of induction (FOI) was calculated based on the ratio of luminescence normalized to the DMSO wells within each assay plate. The maximum percentage of induction was reported based on the ratio between the highest FOI of each compound and the maximum FOI of control compound within each assay plate. Wells with DMSO were served as the negative controls and wells containing control compound with the highest FOI were used as positive controls. EC50 determination was performed by fitting the curve of percent control activity versus the log of the compound concentration using the GraphPad Prism 6.0 software.

[2] = target: T1, PD-⅟PD-L1 (recombinant human PD-L1 protein and human PD-1 protein) (Homo sapiens, UniProt Q9NZQ7); assay: Homogeneous Time-Resolved Fluorescence (HTRF) PD-1/PD-L1 binding assay; conditions: 3 nM PD1, 10 nM PD-L1, 25° C., PBS pH 7.4
T1 construct: Recombinant human PD-L1 protein (19-238) with a His-tag at the C-terminus; purchased AcroBiosystems PD1-H5229 (PD-L1); PD1-H5257 (PD-1)
T1 sequence (Q9NZQ7 19-238): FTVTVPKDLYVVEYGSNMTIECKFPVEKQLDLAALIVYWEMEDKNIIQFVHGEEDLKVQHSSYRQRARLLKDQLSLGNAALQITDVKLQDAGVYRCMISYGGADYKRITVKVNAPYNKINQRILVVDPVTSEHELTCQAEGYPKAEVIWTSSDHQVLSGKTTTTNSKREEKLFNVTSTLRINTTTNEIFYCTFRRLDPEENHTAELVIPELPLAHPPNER
Description: Homogeneous Time-Resolved Fluorescence (HTRF) PD-⅟PD-L1 Binding Assay
The assays were conducted in a standard black 384-well polystyrene plate with a final volume of 20 uL. Inhibitors were first serially diluted in DMSO and then added to the plate wells before the addition of other reaction components. The final concentration of DMSO in the assay was 1%. The assays were carried out at 25° C. in the PBS buffer (pH 7.4) with 0.05% Tween-20 and 0.1% BSA. […] PD-L1 and PD-1 proteins were diluted in the assay buffer and 10 uL was added to the plate well. Plates were centrifuged and proteins were preincubated with inhibitors for 40 minutes. The incubation was followed by the addition of 10 uL of HTRF detection buffer supplemented with Europium cryptate-labeled anti-human IgG (PerkinElmer-AD0212) specific for Fc and anti-His antibody conjugated to SureLight®-Allophycocyanin (APC, PerkinElmer-AD0059H). […] Final concentrations in the assay were - 3 nM PD1, 10 nM PD-L1, 1 nM europium anti-human IgG and 20 nM anti-His-Allophycocyanin. IC50 determination was performed by fitting the curve of percent control activity versus the log of the inhibitor concentration using the GraphPad Prism 5.0 software.

[3] = system: PD-L1 (U2OS/PD-L1 cells, Jurkat-PD-1-SHP cells); assay: Src Homology Region 2 Domain-containing Phosphatase (SHP) assay; format: cell-based; conditions: Homo sapiens; U2OS/PD-L1 + Jurkat-PD-1-SHP cells, 2 hours
Description: Example 1B. Src Homology Region 2 Domain-containing Phosphatase (SHP) Assay
U2OS/PD-L1 cells (DiscoveRx Corporation) were maintained in McCoy’s 5A medium with addition of 10% FBS, 0.25 µg/mL Puromycin. After removing the culture media, the cell medium was replaced with assay medium (RPMI1640 medium with 1% FBS). The U2OS/PD-L1 cells were then added in 384-well black clear bottom assay plate (CELLCOAT® Tissue Culture Plates, Greiner Bio-One) at 5000 cells per well in 20 uL assay medium. Test compounds were prepared by serial dilution in DMSO and 125 nL compound were first transferred to the 384 REMP plate well (Thermofisher) by ECHO liquid handler (Labcyte) followed with addition of 27.5 uL assay medium. 5 µL/well compounds in the assay medium were transferred to the cell plate with 0.05% DMSO in the final assay at 0.25 µM. Jurkat-PD-1-SHP cells (DiscoveRx Corporation) were cultured in RPMI1640 medium supplemented with 10% FBS, 250 µg/mL Hygromycin B, 500 µg/mL G418. After the replacement of culture media with assay medium, 5,000 Jurkat-PD-1-SHP cells in 20 µL were dispensed into each well. The assay plate was incubated at 37° C., 5% CO2 for 2 hours before 2.5 uL PathHunter reagent 1 (DiscoveRx Corporation) were added to each well. The assay plate was shaken for 1 min at 350 rpm in the dark followed with addition of 10 uL PathHunter reagent 2 (DiscoveRx Corporation). Chemiluminescent signal was recorded with TopCount reader (Perkin Elmer) after incubation at room temperature for 1 hour. Wells with DMSO were served as the positive controls and wells containing no cells were used as negative controls. IC50 determination was performed by fitting the curve of percentage of control activity versus the log of the compound concentration using the GraphPad Prism 6.0 software.

[4] = target: T2, PD-L1 on CD14+ cells in human whole blood (Homo sapiens, UniProt Q9NZQ7); assay: PD-L1 whole blood internalization assay; format: cell-based; conditions: 1 ng/mL interferon γ, CD14+ gated, 24 hour
T2 construct: Cells were gated on CD14+ (BD Biosciences) and PD-L1 expression determined by mean fluorescence intensity; host or cells: CD14+ cells in normal human whole blood, stimulated with human interferon gamma
T2 sequence (Q9NZQ7 19-290): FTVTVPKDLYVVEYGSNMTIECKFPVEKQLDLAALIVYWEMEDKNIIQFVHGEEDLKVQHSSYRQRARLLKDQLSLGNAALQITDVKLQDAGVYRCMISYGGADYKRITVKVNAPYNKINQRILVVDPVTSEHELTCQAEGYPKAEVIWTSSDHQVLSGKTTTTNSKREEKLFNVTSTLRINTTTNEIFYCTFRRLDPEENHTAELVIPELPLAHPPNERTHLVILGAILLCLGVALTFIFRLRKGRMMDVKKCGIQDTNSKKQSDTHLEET
Description: PD-L1 Whole Blood Internalization Assay
To determine PD-L1 internalization in human whole blood, normal human blood (Biological Specialty Corp, Colmar. PA) was incubated in the presence or absence of a concentration range of test compounds and 1 ng/mL human interferon γ (R&D Systems Inc. Minn. MN) in a 96 well “2 mL Assay Block” (Corning, Corning NY) for 18-20 hours at 37 °C. Blood was then stained with PD-L1 (MIH1, eBioscience; or BD Biosciences San Jose, CA), CD14 (Life Technologies, Carlsbad, CA) for 30 minutes in the dark at room temperature. Whole Blood/red cells were lysed/fixed (lysis buffer BD Biosciences) for 5 minutes at 37 °C in the dark and then centrifuged at 1600 RPM for 5 minutes. Cells were resuspended in Stain Buffer (BD Bioscience, San Jose, CA) and transferred into 96 well round bottom plates (Coming). Cells were gated on CD14+ (BD Biosciences) and PD-L1 expression determined by mean fluorescence intensity (MFI) (BD LSRFortessa® X-20). IC50 determination was performed by fitting the curve of compound percent inhibition versus the log of the compound concentration using the GraphPad Prism 7.0 software.

SMILES	IC50 [2] [nM]	IC50 [3] [nM]	IC50 [4] [nM]	EC50 [1] [nM]
Cc1c(-c2nc3c(Cl)cc(CNCCO)cn3n2)cccc1-c1cccc(NC(=O)c2ccc(CNCCO)cn2)c1Cl [Compound 2, N-(2-chloro-3′-(8-chloro-6-((2-hydroxyethylamino)methyl)-[1,2,4]triazolo[1,5-a]pyridin-2-yl)-2′-methylbiphenyl-3-yl)-5-((2-hydroxyethylamino)methyl)picolinamide]	< 10	< 100	–	< 500
Cc1c(NC(=O)c2ccc(CNCCO)cn2)cccc1-c1cccc(NC(=O)c2ccc(CNCCO)cn2)c1Cl [Compound 7, N,N′-(2-chloro-2′-methylbiphenyl-3,3′-diyl)bis(5-((2-hydroxyethylamino)methyl)picolinamide)]	< 10	< 10	< 10	< 100
Cc1c(NC(=O)c2ccc(CN3CCC(C(=O)O)CC3)cn2)cccc1-c1cccc(NC(=O)c2ccc(CN3CC[C@@H](O)C3)cn2)c1Cl [Compound 8, (R)-1-((6-(2′-chloro-3′-(5-((3-hydroxypyrrolidin-1-yl)methyl)picolinamido)-2-methylbiphenyl-3-ylcarbamoyl)pyridin-3-yl)methyl)piperidine-4-carboxylic acid]	< 10	< 100	–	< 100
Cc1cc(C(=O)Nc2cccc(-c3cccc(NC(=O)c4ccc(CN5CCCC5)cn4)c3Cl)c2C)ncc1CN1CCCC[C@H]1C(=O)O [Compound 9, (S)-1-((6-((2′-chloro-2-methyl-3′-(5-(pyrnolidin-1-ylmethyl)picolinamido)-[1,1′-biphenyl]-3-yl)carbamoyl)-4-methylpyridin-3-yl)methyl)piperidine-2-carboxylic acid]	< 10	< 10	–	< 100
Cc1c(Nc2nccc3cc(CN4CC[C@@H](O)C4)cnc23)cccc1-c1cccc(NC(=O)c2nc3c(n2C)CCN(CC[C@H]2CC[C@H](C(=O)O)CC2)C3)c1Cl [Compound 10, trans 4-(2-(2-(2-chloro-3′-(3-(((R)-3-hydroxypyrrolidin-1-yl)methyl)-1,7-naphthyridin-8-ylamino)-2′-methylbiphenyl-3-ylcarbamoyl)-1-methyl-6,7-dihydro-1H-imidazo[4,5-c]pyridin-5(4H)-yl)ethyl)cyclohexanecarboxylic acid]	< 10	< 10	< 100	< 100

Now from value to compound, other results behind:

IC50 [2] [nM]	IC50 [3] [nM]	IC50 [4] [nM]	SMILES	EC50 [1] [nM]
< 10	< 10	< 100	Cc1c(Nc2ncnc3cc(CN4CC[C@@H](O)C4)cnc23)cccc1-c1cccc(NC(=O)c2nc3c(n2C)CCN(C2CCC(C)(C(=O)O)CC2)C3)c1Cl (stereo partly shown) [Compound 12]	< 100
< 10	< 10	< 500	Cc1c(NC(=O)c2nc3c(n2C)CCN(C[C@H]2CC[C@H](C(=O)O)CC2)C3)cccc1-c1cccc(NC(=O)c2nc3c(n2C)CCN(C)C3)c1Cl [Compound 15, trans-4-((2-(2′-chloro-3′-(1,5-dimethyl-4,5,6,7-tetrahydro-1H-imidazo[4,5-c]pyfidine-2-caiboxamido)-2-methylbiphenyl-3-ylcarbamoyl)-1-methyl-6,7-dihydro-1H-imidazo[4,5-c]pyridin-5(4H)-yl)methyl)cyclohexane-1-carboxylic acid]	< 100
< 10	< 10	< 100	Cc1c(NC(=O)c2nc3c(n2C)CCN(CC[C@H]2CC[C@H](C(=O)O)CC2)C3)cccc1-c1cccc(NC(=O)c2nc3c(n2C)CCN(C)C3)c1Cl [Compound 16, trans-4-(2-(2-((2′-chloro-3′-(1,5-dimethyl-4,5,6,7-tetrahydro-1H-imidazo[4,5-c]pyfidine-2-caiboxamido)-2-methyl-[1,1′-biphenyl]-3-yl)caibamoyl)-1-methyl-1,4,6,7-tetrahydro-5H-imidazo[4,5-c]pyridin-5-yl)ethyl)cyclohexane-1-carboxylic acid]	< 100
< 10	< 10	< 100	Cc1c(NC(=O)c2nc3c(n2C)CCN(C[C@H]2CC[C@@H](C(=O)O)CC2)C3)cccc1-c1cccc(NC(=O)c2nc3c(n2C)CCN(C)C3)c1Cl [Compound 17, cis-4-((2-((2′-chloro-3′-(1,5-dimethyl-4,5,6,7-tetrahydro-1H-imidazo[4,5-c]pyfidine-2-caiboxamido)-2-methyl-[1,1′-biphenyl]-3-yl)caibamoyl)-1-methyl-1,4,6,7-tetrahydro-5H-imidazo[4,5-c]pyridin-5-yl)methyl)cyclohexane-1-carboxylic acid]	< 100
< 10	< 10	< 100	Cc1c(NC(=O)c2nc3c(n2C)CCN(C)C3)cccc1-c1cccc(NC(=O)c2nc3c(n2C)CCN(C[C@H]2CC[C@@H](C(=O)O)CC2)C3)c1Cl [Compound 18, cis-4-((2-((2-chloro-3′-(1,5-dimethyl-4,5,6,7-tetrahydro-1H-imidazo[4,5-c]pyfidine-2-caiboxamido)-2′-methyl-[1,1′-biphenyl]-3-yl)carbamoyl)-1-methyl-1,4,6,7-tetrahydro-5H-imidazo[4,5-c]pyridin-5-yl)methyl)cyclohexane-1-carboxylic acid]	< 100
